Here are results for one molecule from patent publication US9873883B2, “Glyphosate resistant plants and associated methods” (Dow AgroSciences LLC, priority 2012, dated 2018).

Assay [1] has as its system Arabidopsis transformed with TraP4 v5::dgt-14 (pDAB107526). The assay can be described thus: Postemergence glyphosate tolerance, visual injury. The note with it: 2 weeks after application. It is filed as in vivo, Arabidopsis thaliana. An excerpt: (§1) Transgenic T1 Arabidopsis plants containing the dgt-14 transgene were sprayed with differing rates of glyphosate. A distribution of varying concentrations of glyphosate rates, including elevated rates, were applied in this study to determine the relative levels of resistance (105, 420, 1,680 or 3,360 g ae/ha). The typical 1× field usage rate of glyphosate is 1,120 g ae/ha. The T1 Arabidopsis plants that were used in this study were variable in copy number for the dgt-14 transgene. The low copy dgt-14 T1 Arabidopsis plants were identified using the molecular confirmation assays described above, and self-pollinated and used to produce T2 plants.
(§2) The Arabidopsis T1 transformants were first selected from the background of untransformed seed using a glufosinate selection scheme. Three flats or 30,000 seed were analyzed for each T1 construct. The T1 plants selected above were molecularly characterized and the plants were subsequently transplanted to individual pots and sprayed with various rates of commercial glyphosate as previously described. The dose response of these plants is presented in terms of % visual injury 2 weeks after treatment (WAT). […] An arithmetic mean and standard deviation is presented for each construct used for Arabidopsis transformation. The range in individual response is also indicated in the last column for each rate and transformation. Wildtype, non-transformed Arabidopsis (c.v. Columbia) served as a glyphosate sensitive control.
(§3) Selected T1 Arabidopsis plants which were identified to contain low-copy numbers of transgene insertions (1-3 copies) were self-fertilized to produce a second generation for additional assessment of glyphosate tolerance. […] In the T2 generation hemizygous and homozygous plants were available for testing for each event and therefore were included for each rate of glyphosate tested. Hemizygous plants contain two different alleles at a locus as compared to homozygous plants which contain the same two alleles at a locus. The copy number and ploidy levels of the T2 plants were confirmed using the molecular analysis protocols previously described. Likewise, glyphosate was applied using the methods and rates as previously described. The dose response of the plants is presented in terms of % visual injury 2 weeks after treatment (WAT). […] An arithmetic mean and standard deviation are presented for each construct used for Arabidopsis transformation. The range in individual response is also indicated in the last column for each rate and transformation. Wildtype, non-transformed Arabidopsis (cv. Columbia) served as a glyphosate sensitive control. In addition, plants comprising a glyphosate herbicide resistance gene, dgt-1 (as described in U.S. patent Ser. No. 12/558,351, incorporated herein by reference in its entirety) were included as a positive control.
(§4) Randomly selected T2 Arabidopsis plants which were identified to contain low-copy numbers of transgene insertions (1-3 copies) were self-fertilized to produce a third generation for additional assessment of glyphosate tolerance. Arabidopsis seed from the third generation (T3) were planted and evaluated for glyphosate tolerance using the same protocols as previously described. […] These Events were assayed via LC-MS-MS to confirm that the plants expressed the DGT-14 protein. […] Exemplary resistant T3 Events comprised dgt-14 linked with TraP8 v2 (pDAB105526), TraP9 v2 (pDAB105527), TraP12 v2 (pDAB105528) and TraP13 v2 (pDAB105529).

Assay [2] deals with Arabidopsis transformed with TraP12 v2::dgt-14 (pDAB105528). In words: Postemergence glyphosate tolerance, visual injury. The assay is classed as in vivo, Arabidopsis thaliana. The note with it: for Visual % injury (Ave): 2 weeks after application.
Text: as §1, §2, §3, §4

With `O=C(O)CNCP(=O)(O)O` [glyphosate, N-(phosphonomethyl)glycine], the “Visual % injury (Ave)” value turned out to be 85.8% in assay [1] (T1, 105 g ae/ha); 91.0% in assay [1] (T1, 420 g ae/ha); 96.5% in assay [1] (T1, 1680 g ae/ha); 95.8% in assay [1] (T1, 3360 g ae/ha); 85.0% in assay [1] (T2, 420 g ae/ha); 87.5% in assay [1] (T2, 840 g ae/ha). Further, the “Visual % injury (Ave)” value in assay [1] (T2, 1680 g ae/ha) was determined as 92.5%; in assay [1] (T2, 3360 g ae/ha) it was 95.0%; in assay [2] (T1, 105 g ae/ha) it was 6.0%; in assay [2] (T1, 420 g ae/ha), 11.0%; in assay [2] (T1, 1680 g ae/ha) it was 20.4%; in assay [2] (T1, 3360 g ae/ha), 19.0%. For the same molecule, the “Visual % injury (Ave)” value worked out at 1.8% in assay [2] (T2, 420 g ae/ha); 2.0% in assay [2] (T2, 1680 g ae/ha); 3.8% in assay [2] (T2, 3360 g ae/ha); 0.0% in assay [2] (T3, 420 g ae/ha); 2.5% in assay [2] (T3, 1680 g ae/ha); 4.8% in assay [2] (T3, 3360 g ae/ha). Also, the injury range result in assay [2] (T2, all concentrations of glyphosate tested) is listed as “less than 20%”; in assay [2] (T3, all concentrations of glyphosate tested) it was “less than 20%”.
